Source: ChEMBL document CHEMBL1123014, “Synthesis and pharmacological activity of partially modified retro-inverso dermorphin tetrapeptides” (J Med Chem, 1985)

Legend:
[1] = Half-life of the compound; assay type: ADME
[2] = Half-life was determined; assay type: ADME; settings: human
Mus musculus [3] = test: In vivo analgesic activity in the mouse tail-flick assay following i.c.v. administration.; assay type: functional
Mus musculus [4] = test: In vivo analgesic activity in the mouse tail-flick assay following s.c. administration.; assay type: functional; settings: sc
Cavia porcellus = organism: Cavia porcellus; test: In vitro inhibition of contractions in the electrically stimulated guinea pig ileum.; assay type: functional
Mus musculus [5] = test: In vivo analgesic potency in mice compared to morphine after i.c.v. administration.; assay type: functional
Mus musculus [6] = test: In vivo analgesic potency in mice compared to morphine after s.c. administration.; assay type: functional

Q: What does the source list for `C[C@@H](NC(=O)[C@@H](N)Cc1ccc(O)cc1)C(=O)N[C@@H](Cc1ccccc1)C(=O)NCNC(=O)Cc1ccccc1`?
A: half-life [1]: 45 min; half-life [2]: 60 min; ED50 (Mus musculus [3]): 74.1 pmol/mouse; ED50 (Mus musculus [4]): 27.8 µmol/kg; IC50 (Cavia porcellus): 2.12 nM

Q: Which half-life [2] does the source give for `CC(NC(=O)CNC(=O)[C@H](Cc1ccccc1)NC(=O)[C@@H](C)NC(=O)[C@@H](N)Cc1ccc(O)cc1)c1ccccc1` (stereo partly specified) here?
A: 40 min

Q: And the ED50 (Mus musculus [3])?
A: 7.61 pmol/mouse

Q: What about the ED50 (Mus musculus [4]) of the same compound?
A: 13.6 µmol/kg

Q: And the IC50 (Cavia porcellus)?
A: 0.59 nM

Q: For `C[C@@H](NC(=O)[C@@H](N)Cc1ccc(O)cc1)C(=O)N[C@@H](Cc1ccccc1)NC(=O)CC(N)=O`, which Relative potency (Mus musculus [5]) is on record?
A: 3.11

Q: What about the half-life [2] of the same compound?
A: 35 min

Q: And the ED50 (Mus musculus [3])?
A: 974 pmol/mouse

Q: What about the IC50 (Cavia porcellus) of the same compound?
A: 242 nM

Q: What does the source list for `C[C@@H](NC(=O)[C@@H](N)Cc1ccc(O)cc1)C(=O)N[C@@H](Cc1ccccc1)NC(=O)CC(=O)NCc1ccccc1`?
A: half-life [2]: 35 min; ED50 (Mus musculus [3]): 556 pmol/mouse; IC50 (Cavia porcellus): 18.2 nM

Q: For `C[C@@H](NC(=O)[C@@H](N)Cc1ccc(O)cc1)C(=O)N(C)[C@@H](Cc1ccccc1)NC(=O)CNC(=O)Cc1ccccc1`, which half-life [2] is on record?
A: 45 min

Q: What about the ED50 (Mus musculus [3]) of the same compound?
A: 292 pmol/mouse

Q: And the IC50 (Cavia porcellus)?
A: 25.2 nM

Q: With `CC(NC(=O)CC(=O)N[C@H](Cc1ccccc1)NC(=O)[C@@H](C)NC(=O)[C@@H](N)Cc1ccc(O)cc1)c1ccccc1` (stereo partly specified) as the compound, how does the half-life [1] read?
A: 60 min

Q: What about the half-life [2] of the same compound?
A: 65 min

Q: And the ED50 (Mus musculus [3])?
A: 88.6 pmol/mouse

Q: What about the Relative potency (Mus musculus [6]) of the same compound?
A: 0.24

Q: And the ED50 (Mus musculus [4])?
A: 44.2 µmol/kg

Q: And the IC50 (Cavia porcellus)?
A: 2.05 nM

Q: With `C[C@@H](NC(=O)[C@@H](N)Cc1ccc(O)cc1)C(=O)N[C@@H](Cc1ccccc1)C(=O)NCNC(=O)C12CC3CC(CC(C3)C1)C2` as the compound, how does the half-life [1] read?
A: 65 min

Q: What about the half-life [2] of the same compound?
A: 80 min

Q: What about the ED50 (Mus musculus [3]) of the same compound?
A: 10.9 pmol/mouse

Q: What about the ED50 (Mus musculus [4]) of the same compound?
A: 21.7 µmol/kg

Q: What about the IC50 (Cavia porcellus) of the same compound?
A: 0.31 nM

Q: With `C[C@@H](NC(=O)[C@@H](N)Cc1ccc(O)cc1)C(=O)N[C@@H](Cc1ccccc1)C(=O)NCC(=O)NO` as the compound, how does the half-life [2] read?
A: 25 min

Q: What about the ED50 (Mus musculus [3]) of the same compound?
A: 140 pmol/mouse

Q: And the IC50 (Cavia porcellus)?
A: 108 nM

Q: Which half-life [2] does the source give for `CCONC(=O)CC(=O)N[C@H](Cc1ccccc1)NC(=O)[C@@H](C)NC(=O)[C@@H](N)Cc1ccc(O)cc1` here?
A: 30 min

Q: And the ED50 (Mus musculus [3])?
A: 1630 pmol/mouse

Q: And the IC50 (Cavia porcellus)?
A: 320 nM

Q: With `C[C@@H](NC(=O)[C@@H](N)Cc1ccc(O)cc1)C(=O)N[C@@H](Cc1ccccc1)C(=O)NCC(=O)N[C@@H](Cc1ccc(O)cc1)C(=O)N1CCC[C@H]1C(=O)N[C@@H](CO)C(N)=O` [DERMORPHIN] as the compound, how does the half-life [1] read?
A: 35 min

Q: And the half-life [2]?
A: 40 min

Q: And the ED50 (Mus musculus [3])?
A: 11.4 pmol/mouse

Q: What about the ED50 (Mus musculus [4]) of the same compound?
A: 2.75 µmol/kg

Q: What does the source list for `CN1CC[C@]23c4c5ccc(O)c4O[C@H]2[C@@H](O)C=C[C@H]3[C@H]1C5` [MORPHINE]?
A: ED50 (Mus musculus [3]): 3030 pmol/mouse; ED50 (Mus musculus [4]): 10.9 µmol/kg

Q: With `C[C@@H](NC(=O)[C@@H](N)Cc1ccc(O)cc1)C(=O)N[C@@H](Cc1ccccc1)C(=O)NCNC=O` as the compound, how does the half-life [2] read?
A: 40 min

Q: What about the ED50 (Mus musculus [3]) of the same compound?
A: 157 pmol/mouse

Q: And the IC50 (Cavia porcellus)?
A: 39.2 nM

Q: For `C[C@@H](NC(=O)[C@@H](N)Cc1ccc(O)cc1)C(=O)N[C@@H](Cc1ccccc1)NC(=O)CC(=O)NO`, which half-life [2] is on record?
A: 30 min

Q: And the ED50 (Mus musculus [3])?
A: 1600 pmol/mouse

Q: What about the IC50 (Cavia porcellus) of the same compound?
A: 330 nM

Q: With `CC(C(=O)NCC(=O)N[C@H](Cc1ccccc1)N(C)C(=O)[C@@H](C)NC(=O)[C@@H](N)Cc1ccc(O)cc1)c1ccccc1` (stereo partly specified) as the compound, how does the half-life [2] read?
A: 60 min

Q: And the ED50 (Mus musculus [3])?
A: 269 pmol/mouse

Q: What about the IC50 (Cavia porcellus) of the same compound?
A: 31.2 nM

Q: For `C[C@@H](NC(=O)[C@@H](N)Cc1ccc(O)cc1)C(=O)N[C@@H](Cc1ccccc1)C(=O)NCC(=O)NC12CC3CC(CC(C3)C1)C2`, which half-life [2] is on record?
A: 35 min

Q: And the ED50 (Mus musculus [3])?
A: 5.12 pmol/mouse

Q: And the ED50 (Mus musculus [4])?
A: 18.8 µmol/kg

Q: What about the IC50 (Cavia porcellus) of the same compound?
A: 2.05 nM

Q: With `CC(C(=O)NCNC(=O)[C@H](Cc1ccccc1)NC(=O)[C@@H](C)NC(=O)[C@@H](N)Cc1ccc(O)cc1)c1ccccc1` (stereo partly specified) as the compound, how does the half-life [1] read?
A: 65 min

Q: And the half-life [2]?
A: 65 min

Q: What about the ED50 (Mus musculus [3]) of the same compound?
A: 19.2 pmol/mouse

Q: What about the ED50 (Mus musculus [4]) of the same compound?
A: 39.5 µmol/kg

Q: What about the IC50 (Cavia porcellus) of the same compound?
A: 0.5 nM

Q: Which half-life [2] does the source give for `C[C@@H](NC(=O)[C@@H](N)Cc1ccc(O)cc1)C(=O)N[C@@H](Cc1ccccc1)C(=O)NCC(=O)NCc1ccccc1` here?
A: 30 min

Q: And the ED50 (Mus musculus [3])?
A: 33.1 pmol/mouse

Q: What about the IC50 (Cavia porcellus) of the same compound?
A: 2.97 nM

Q: For `C[C@@H](NC(=O)[C@@H](N)Cc1ccc(O)cc1)C(=O)N[C@@H](Cc1ccccc1)C(=O)NCC(N)=O`, which half-life [2] is on record?
A: 30 min

Q: What about the ED50 (Mus musculus [3]) of the same compound?
A: 68 pmol/mouse

Q: And the ED50 (Mus musculus [4])?
A: 68.1 µmol/kg

Q: And the IC50 (Cavia porcellus)?
A: 45.2 nM

Q: With `CCONC(=O)CNC(=O)[C@H](Cc1ccccc1)NC(=O)[C@@H](C)NC(=O)[C@@H](N)Cc1ccc(O)cc1` as the compound, how does the half-life [2] read?
A: 20 min

Q: What about the ED50 (Mus musculus [3]) of the same compound?
A: 492 pmol/mouse

Q: What about the IC50 (Cavia porcellus) of the same compound?
A: 191 nM

Q: Which half-life [2] does the source give for `C[C@@H](NC(=O)[C@@H](N)Cc1ccc(O)cc1)C(=O)N(C)[C@@H](Cc1ccccc1)NC(=O)CNC=O` here?
A: 35 min

Q: And the ED50 (Mus musculus [3])?
A: 642 pmol/mouse

Q: What about the IC50 (Cavia porcellus) of the same compound?
A: 380 nM

Q: Which results are given for `C[C@@H](NC(=O)[C@@H](N)Cc1ccc(O)cc1)C(=O)N(C)[C@@H](Cc1ccccc1)NC(=O)CNC(=O)C12CC3CC(CC(C3)C1)C2`?
A: half-life [2]: 55 min; ED50 (Mus musculus [3]): 246 pmol/mouse; IC50 (Cavia porcellus): 19.2 nM

Q: Which half-life [1] does the source give for `C[C@@H](NC(=O)[C@@H](N)Cc1ccc(O)cc1)C(=O)N[C@@H](Cc1ccccc1)NC(=O)CC(=O)NC12CC3CC(CC(C3)C1)C2` here?
A: 50 min

Q: And the half-life [2]?
A: 65 min

Q: And the ED50 (Mus musculus [3])?
A: 88.4 pmol/mouse

Q: And the ED50 (Mus musculus [4])?
A: 55.5 µmol/kg

Q: And the IC50 (Cavia porcellus)?
A: 4.45 nM
